This note sets out measurements from ChEMBL document CHEMBL6071124, “The search for pyruvate kinase-R activators; from a HTS screening hit via an impurity to the discovery of a lead series” (Bioorg Med Chem Lett, 2024).

SMILES strings stand for the structures. ≈ marks a conversion by molar mass, not a printed value.

In series [1] the target is T1, Pyruvate kinase PKLR (Homo sapiens, UniProt P30613). Nature of the series: Activation of PKR (unknown origin) by differential scanning fluorimetry analysis. (In general: In DSF a fluorescence change marks the thermal transition of the protein.)
T1 sequence (P30613 whole entry): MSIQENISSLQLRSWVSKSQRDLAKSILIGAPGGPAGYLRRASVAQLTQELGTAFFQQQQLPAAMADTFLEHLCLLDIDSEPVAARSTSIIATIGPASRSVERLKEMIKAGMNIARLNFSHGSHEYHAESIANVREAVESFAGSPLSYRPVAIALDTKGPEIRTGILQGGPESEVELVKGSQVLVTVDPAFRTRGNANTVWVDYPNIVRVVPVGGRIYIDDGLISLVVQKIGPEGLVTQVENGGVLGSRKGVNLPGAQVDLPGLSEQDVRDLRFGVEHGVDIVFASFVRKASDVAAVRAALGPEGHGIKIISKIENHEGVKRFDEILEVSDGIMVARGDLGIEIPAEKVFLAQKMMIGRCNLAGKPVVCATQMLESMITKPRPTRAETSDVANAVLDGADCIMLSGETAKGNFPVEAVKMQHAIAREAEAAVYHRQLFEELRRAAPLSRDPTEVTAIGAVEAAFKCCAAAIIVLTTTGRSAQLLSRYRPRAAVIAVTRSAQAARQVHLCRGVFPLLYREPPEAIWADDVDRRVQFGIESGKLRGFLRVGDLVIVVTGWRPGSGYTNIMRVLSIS
Series [2] addresses T1, Pyruvate kinase PKLR. Description: Activation of PKR (unknown origin).
Series [3] can be described thus: Genotoxicity in Salmonella typhimurium. Format: toxicity. As to conditions: salmonella enterica subsp. enterica serovar typhimurium.
Series [4] is described as follows: Permeability of the compound across apical to basolateral side. Format: ADME. Particulars: not told; read-out: permeability; call rule not given here.
The nature of series [5]: Solubility of the compound. The format is physicochemical.
The nature of series [6]: AUC in rat at 10 mg/kg, po. Particulars: in vivo. Format: ADME, organism-based.
Series [7] is described as follows: Half life in rat at 10 mg/kg, po. Format: ADME, organism-based. As to conditions: in vivo.
Series [8] deals with Voltage-gated inwardly rectifying potassium channel KCNH2 (Homo sapiens, UniProt Q12809). Description: Inhibition of human ERG at >50 uM. The format is toxicity.
Voltage-gated inwardly rectifying potassium channel KCNH2, sequence (Q12809 whole entry): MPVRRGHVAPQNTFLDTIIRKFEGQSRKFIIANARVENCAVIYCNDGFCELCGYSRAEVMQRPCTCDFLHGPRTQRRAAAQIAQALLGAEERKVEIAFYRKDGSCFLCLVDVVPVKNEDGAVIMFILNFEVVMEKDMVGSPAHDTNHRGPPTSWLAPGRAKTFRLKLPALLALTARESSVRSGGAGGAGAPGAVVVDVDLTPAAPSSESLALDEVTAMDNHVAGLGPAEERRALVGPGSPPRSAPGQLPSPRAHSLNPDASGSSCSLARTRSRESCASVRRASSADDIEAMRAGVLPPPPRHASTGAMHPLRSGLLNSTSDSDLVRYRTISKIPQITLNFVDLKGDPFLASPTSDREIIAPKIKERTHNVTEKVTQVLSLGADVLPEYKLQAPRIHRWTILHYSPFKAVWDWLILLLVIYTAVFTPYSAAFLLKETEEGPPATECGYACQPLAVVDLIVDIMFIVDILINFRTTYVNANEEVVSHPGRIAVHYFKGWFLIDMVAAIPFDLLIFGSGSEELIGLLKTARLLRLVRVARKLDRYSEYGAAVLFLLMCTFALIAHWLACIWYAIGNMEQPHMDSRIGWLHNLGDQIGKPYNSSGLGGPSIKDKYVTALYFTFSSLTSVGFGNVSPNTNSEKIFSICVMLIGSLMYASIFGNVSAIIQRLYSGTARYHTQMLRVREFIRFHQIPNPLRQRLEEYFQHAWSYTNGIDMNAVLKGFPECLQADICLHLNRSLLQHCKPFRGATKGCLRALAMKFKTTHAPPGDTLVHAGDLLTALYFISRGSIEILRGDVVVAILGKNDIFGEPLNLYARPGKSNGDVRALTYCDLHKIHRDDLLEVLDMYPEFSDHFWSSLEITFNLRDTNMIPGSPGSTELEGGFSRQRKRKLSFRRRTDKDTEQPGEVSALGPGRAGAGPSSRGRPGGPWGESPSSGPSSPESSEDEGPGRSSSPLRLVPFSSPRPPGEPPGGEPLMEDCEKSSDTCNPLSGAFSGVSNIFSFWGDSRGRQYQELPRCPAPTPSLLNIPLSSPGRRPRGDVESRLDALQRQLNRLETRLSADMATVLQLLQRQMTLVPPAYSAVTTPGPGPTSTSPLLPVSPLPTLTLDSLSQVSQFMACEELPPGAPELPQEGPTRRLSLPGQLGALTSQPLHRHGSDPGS
Series [9] has as its target T2, aromatase (Homo sapiens, UniProt P11511).
T2 sequence (P11511 whole entry): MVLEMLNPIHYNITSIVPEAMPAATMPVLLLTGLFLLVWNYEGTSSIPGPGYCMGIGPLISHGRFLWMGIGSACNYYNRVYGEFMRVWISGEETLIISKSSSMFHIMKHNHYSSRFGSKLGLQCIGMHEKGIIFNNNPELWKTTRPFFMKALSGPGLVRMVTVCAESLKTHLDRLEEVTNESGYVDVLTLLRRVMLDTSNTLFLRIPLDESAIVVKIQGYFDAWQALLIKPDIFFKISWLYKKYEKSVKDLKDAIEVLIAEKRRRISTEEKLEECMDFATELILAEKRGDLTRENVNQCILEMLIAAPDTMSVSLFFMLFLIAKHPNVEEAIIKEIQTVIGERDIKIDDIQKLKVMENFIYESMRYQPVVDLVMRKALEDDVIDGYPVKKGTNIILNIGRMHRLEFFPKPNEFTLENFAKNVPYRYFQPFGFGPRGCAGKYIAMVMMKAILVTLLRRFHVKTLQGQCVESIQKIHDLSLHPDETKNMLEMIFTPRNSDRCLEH
Nature of the series: Inhibition of aromatase (unknown origin) at 10 uM relative to control.

The term EC50 denotes the concentration that produces a half-maximal response. Read a high EC50 as a need for much substance. In turn, `Cc1cnccc1CNC(=O)c1cc(COc2ccc3c(c2)OCO3)[nH]n1` yielded an EC50 in [1] of 58 µM.

Take `Cc1ccc(-n2nnnc2CNC(=O)Nc2ccccc2)cc1C`: in series [2], the half-maximal effective concentration (EC50) was 100 µM.

As to `Cc1ccc(-n2nnnc2CNC(=O)NC2CCCCC2)cc1C`, the 50% effective concentration (EC50) in [2] turned out to be 100 µM.

`O=C(NCc1nnnn1-c1ccc(Cl)cc1)Nc1cccs1` displayed an EC50 in series [2] of 100 µM.

`O=C(NCc1nnnn1-c1ccc(F)c(F)c1)Nc1cccs1` registered an EC50 in series [2] of 100 µM.

As a reminder, the solubility is how much of the substance goes into solution per volume. Read a high solubility as a readily soluble substance. A word on the AUC: it is the area under the concentration-time curve, a measure of exposure. Read a low AUC as low exposure. The term half-life denotes how long it takes for the measured level to halve. As usually defined, the inhibition is the relative decrease from the control value, in per cent. Read a low inhibition as little suppression. `Cc1nc(CNC(=O)NCc2ncnn2-c2ccc3cccnc3c2)n(-c2ccc(Cl)c(F)c2)n1`: the Activity entry in series [3] was “Non-Toxic”. Also, in series [4], the Papp A→B was 1.2 ×10⁻⁶ cm/s. The compound also registered a solubility in [5] of 59 µM (≈ 29 µg/mL). For the same compound, in series [6], the area under the curve (AUC) is 2.9 µM·h. In series [7], this compound gave a half-life of 2.4 h. Moreover, in [8], the “inhibition (INH)” value is reported as “Not Active”. In series [9], 10 µM produced 17% inhibition.
